Assay results taken from US20240116985A1, “STAPLED PEPTIDES AND METHODS THEREOF” (priority 2020, published 2024).
≈ marks a conversion by molar mass, not a printed value. Read-outs that look alike come from different tables or passages of the source.

How the values were obtained:
[1] = target: T1, beta-catenin/TCF4 engagement (Homo sapiens, UniProt P35222); experiment: Nano-BRET target engagement assay (B-cat-Halo & TCF4-Luc in HEK293 cells); type: cell-based; details: absolute IC50; read-out: NanoBRET Abs IC50
T1 construct: expressed in transfected cells; host or cells: HEK293
T1 sequence (P35222 1-781): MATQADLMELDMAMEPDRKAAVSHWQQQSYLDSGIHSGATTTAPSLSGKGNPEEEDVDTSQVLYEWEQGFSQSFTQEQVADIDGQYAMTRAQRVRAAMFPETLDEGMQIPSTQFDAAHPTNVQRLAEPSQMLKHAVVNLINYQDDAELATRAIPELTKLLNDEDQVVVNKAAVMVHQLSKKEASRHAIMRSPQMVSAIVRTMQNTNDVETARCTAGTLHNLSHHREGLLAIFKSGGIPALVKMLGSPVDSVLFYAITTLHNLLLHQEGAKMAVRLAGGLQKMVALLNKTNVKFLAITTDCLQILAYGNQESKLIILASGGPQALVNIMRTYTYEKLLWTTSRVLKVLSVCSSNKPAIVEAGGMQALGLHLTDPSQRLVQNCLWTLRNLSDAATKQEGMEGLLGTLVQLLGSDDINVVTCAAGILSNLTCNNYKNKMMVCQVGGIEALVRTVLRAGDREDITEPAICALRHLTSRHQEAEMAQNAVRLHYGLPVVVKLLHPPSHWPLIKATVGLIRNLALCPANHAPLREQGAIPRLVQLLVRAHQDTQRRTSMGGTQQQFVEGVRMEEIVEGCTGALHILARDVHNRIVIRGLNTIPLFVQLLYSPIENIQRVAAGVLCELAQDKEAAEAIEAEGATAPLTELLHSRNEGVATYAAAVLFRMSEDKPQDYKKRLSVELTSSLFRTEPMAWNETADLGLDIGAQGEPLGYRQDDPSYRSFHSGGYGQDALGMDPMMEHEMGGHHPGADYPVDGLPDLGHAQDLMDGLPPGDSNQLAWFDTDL

Solubility in PBS = type: physicochemical
Summary of the method: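 Solubility is derived from HPLC peak areas: the ratio of the PBS supernatant peak to a 50 μM DMSO peptide peak, times 50 uM.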

[2] = target: T2, full-length beta-Catenin (Uniprot ID P35222) (Homo sapiens, UniProt P35222); experiment: Fluorescence polarization IC50 (beta-catenin / 5FAM-TCF4 10-53 competition); type: binding
T2 construct: 10 nM full-length beta-Catenin (Uniprot ID P35222)
T2 sequence (P35222 1-781): T1 sequence (P35222 1-781)

[3] = fluorescence polarization, read-out: beta-Catenin FP IC50

SMILES | IC50 [1] | Solubility (Solubility in PBS; Solubility (uM)) | IC50 [2, 3] | Solubility (Solubility in PBS) | IC50 ([2]; beta-Catenin FP IC50, fluorescence polarization)
CC(=O)N1CCC[C@]12CC=CCCCC1(CCCC=CCCCOC(=O)N3CC[C@@](C(=O)N[C@@H](Cc4c(F)c(F)c(F)c(F)c4F)C(=O)N[C@@H](Cc4csc5ccccc45)C(=O)N[C@@H](CCC(N)=O)C(N)=O)(C3)NC(=O)[C@H](CC(C)C)NC(=O)[C@H](Cc3ccccc3)NC(=O)[C@H](C)NC(=O)[C@H](C)NC(=O)[C@H](CC(=O)O)NC(=O)[C@H](CC(=O)O)NC1=O)NC(=O)[C@H](CC(C)(C)C)NC(=O)[C@H](CC(=O)O)NC2=O (stereo partly drawn) [I-1185, Ac-PL3-Asp-Npg-B5-Asp-Asp-Ala-Ala-Phe-Leu-PyrS2-Pff-BztA-Gln-NH2] | 26900 nM | 33 µM (≈ 66 µg/mL) | 203 nM |  | 
COCCC(=O)N1CCC[C@]12CC=CCCCC1(CCCC=CCCCCCC[C@@](C)(C(=O)N[C@@H](Cc3ccccc3Cl)C(=O)N[C@@H](Cc3csc4ccccc34)C(=O)N[C@@H](CCC(N)=O)C(N)=O)NC(=O)[C@H]([C@@H](C)O)NC(=O)[C@H](Cc3ccccc3)NC(=O)[C@H](C)NC(=O)[C@H](C)NC(=O)[C@H](CC(=O)O)NC(=O)[C@H](CC(=O)O)NC1=O)NC(=O)[C@H](CC(C)(C)C)NC(=O)[C@H](CC(=O)O)NC2=O (stereo partly drawn) [I-1261, MeOPr-PL3-Asp-Npg-B5-Asp-Asp-Ala-Ala-Phe-Thr-S8-2C1F-BztA-Gln-NH2] | 19800 nM |  | 31 nM | 50 µM (≈ 96.7 µg/mL) | 
CC(=O)N1CCC[C@]12CC=CCCCC1(CCCC=CCCCOC(=O)N3CC[C@@](C(=O)N[C@@H](Cc4ccccc4)C(=O)N[C@@H](Cc4csc5ccccc45)C(=O)N[C@@H](CCC(N)=O)C(N)=O)(C3)NC(=O)[C@H](CC(C)C)NC(=O)[C@H](Cc3ccccc3)NC(=O)[C@H](C)NC(=O)[C@H](CCCCNC(C)C)NC(=O)[C@H](CCC(N)=O)NC(=O)[C@H](CC(N)=O)NC1=O)NC(=O)[C@H](C)NC(=O)[C@H](CC(=O)O)NC2=O (stereo partly drawn) [I-1379, Ac-PL3-Asp-Ala-B5-Asn-Gln-iPrLys-Ala-Phe-Leu-PyrS2-Phe-BztA-Gln-NH2] |  |  | 1440 nM | 10 µM (≈ 19.7 µg/mL) | 
CC(=O)N1CCC[C@H]1C(=O)N[C@@H](CC(=O)O)C(=O)N[C@@H](CC1CCCCC1)C(=O)N[C@]1(C)CCCC=CCCCOC(=O)N2CC[C@@](C(=O)N[C@@H](Cc3ccccc3Cl)C(=O)N[C@@H](Cc3csc4ccccc34)C(=O)N[C@@H](CO)C(N)=O)(C2)NC(=O)[C@H]([C@@H](C)O)NC(=O)[C@H](Cc2ccccc2)NC(=O)[C@H](C)NC(=O)[C@H](C)NC(=O)[C@H](CC(=O)O)NC(=O)[C@H](CC(=O)O)NC1=O [I-1184, Ac-Pro-Asp-Cha-R5-Asp-Asp-Ala-Ala-Phe-Thr-PyrS2-2C1F-BztA-Ser-NH2] |  | 45 µM (≈ 83.4 µg/mL) | 176 nM |  | 
CC(=O)N1CCC[C@]12CC=CCCCC1(CCCC=CCCCOC(=O)N3CC[C@@](C(=O)N[C@@H](Cc4ccc5ccccc5c4)C(=O)N[C@@H](Cc4csc5ccccc45)C(=O)N[C@@H](CO)C(N)=O)(C3)NC(=O)[C@H]([C@@H](C)O)NC(=O)[C@H](Cc3ccccc3)NC(=O)[C@H](C)NC(=O)[C@H](C)NC(=O)[C@H]([C@@H](C)O)NC(=O)[C@H](CC(=O)O)NC1=O)NC(=O)[C@H](CC(C)(C)C)NC(=O)[C@H](CC(=O)O)NC2=O (stereo partly drawn) [I-1270, Ac-PL3-Asp-Npg-B5-Asp-Thr-Ala-Ala-Phe-Thr-PyrS2-2NapA-BztA-Ser-NH2] |  |  | 3700 nM | 10 µM (≈ 18.9 µg/mL) | 
CC(=O)N1CCC[C@]12CC=CCCCC1(CCCC=CCCCOC(=O)N3CC[C@@](C(=O)N[C@@H](Cc4ccccc4Cl)C(=O)N[C@@H](Cc4csc5ccccc45)C(=O)N[C@@H](CO)C(N)=O)(C3)NC(=O)[C@H]([C@@H](C)O)NC(=O)[C@H](Cc3ccccc3)NC(=O)[C@H](CC(C)C)NC(=O)[C@H](CC(C)C)NC(=O)[C@H](CC(=O)O)NC(=O)[C@H](CC(=O)O)NC1=O)NC(=O)[C@H](Cc1ccccc1)NC(=O)[C@H](CC(=O)O)NC2=O (stereo partly drawn) [I-1158, Ac-PL3-Asp-Phe-B5-Asp-Asp-Leu-Leu-Phe-Thr-PyrS2-2C1F-BztA-Ser-NH2] |  |  |  | 29 µM (≈ 57.9 µg/mL) | 168 nM

Continued by falling IC50 [2, 3], values first:

IC50 [1] | Solubility (Solubility in PBS; Solubility (uM)) | IC50 [2, 3] | Solubility (Solubility in PBS) | SMILES | IC50 ([2]; beta-Catenin FP IC50, fluorescence polarization)
 |  | 1000 nM | 10 µM (≈ 19.4 µg/mL) | CC(=O)N1CCC[C@]12CC=CCCCC1(CCCC=CCCCOC(=O)N3CC[C@@](C(=O)N[C@@H](Cc4ccccc4)C(=O)N[C@@H](Cc4csc5ccccc45)C(=O)N[C@@H](CCCCN)C(N)=O)(C3)NC(=O)[C@H](CC(C)C)NC(=O)[C@H](Cc3ccccc3)NC(=O)[C@H](C)NC(=O)[C@H](CCCCNC(C)C)NC(=O)[C@H]([C@@H](C)O)NC(=O)[C@H](CC(N)=O)NC1=O)NC(=O)[C@H](C)NC(=O)[C@H](CC(=O)O)NC2=O (stereo partly drawn) [I-1377, Ac-PL3-Asp-Ala-B5-Asn-Thr-iPrLys-Ala-Phe-Leu-PyrS2-Phe-BztA-Lys-NH2] | 
> 20000 nM |  | 755 nM | 10 µM (≈ 18.9 µg/mL) | CC(=O)N1CCC[C@]12CC=CCCCC1(CCCC=CCCCOC(=O)N3CC[C@@](C(=O)N[C@@H](Cc4ccccc4)C(=O)N[C@@H](Cc4csc5ccccc45)C(=O)N[C@@H](CO)C(N)=O)(C3)NC(=O)[C@H]([C@@H](C)O)NC(=O)[C@H](Cc3cccc4ccccc34)NC(=O)[C@H](C)NC(=O)[C@H](C)NC(=O)[C@H]([C@@H](C)O)NC(=O)[C@H](CC(=O)O)NC1=O)NC(=O)[C@H](CC(C)(C)C)NC(=O)[C@H](CC(=O)O)NC2=O (stereo partly drawn) [I-1266, Ac-PL3-Asp-Npg-B5-Asp-Thr-Ala-Ala-1NapA-Thr-PyrS2-Phe-BztA-Ser-NH2] | 
14200 nM |  | 44 nM | 10 µM (≈ 20.5 µg/mL) | CC(=O)N1CCC[C@]12CC=CCCCC1(CCCC=CCCCOC(=O)N3CC[C@@](C(=O)N[C@@H](Cc4ccccc4Cl)C(=O)N[C@@H](Cc4csc5ccccc45)C(=O)N[C@@H](CCC(N)=O)C(N)=O)(C3)NC(=O)[C@H](Cc3cccc(C(F)(F)F)c3)NC(=O)[C@H](Cc3ccccc3)NC(=O)[C@H](C)NC(=O)[C@H](C)NC(=O)[C@H](CC(=O)O)NC(=O)[C@H](CC(=O)O)NC1=O)NC(=O)[C@H](CC(C)(C)C)NC(=O)[C@H](CC(=O)O)NC2=O (stereo partly drawn) [I-1368, Ac-PL3-Asp-Npg-B5-Asp-Asp-Ala-Ala-Phe-3F3MeF-PyrS2-2C1F-BztA-Gln-NH2] | 
38600 nM |  | 26 nM | 10 µM (≈ 20 µg/mL) | CC(=O)N1CCC[C@]12CC=CCCCC1(CCCC=CCCCOC(=O)N3CC[C@@](C(=O)N[C@@H](Cc4ccccc4Cl)C(=O)N[C@@H](Cc4csc5ccccc45)C(=O)N[C@@H](CC(C)C)C(N)=O)(C3)NC(=O)[C@H](CCCCNC(C)C)NC(=O)[C@H](Cc3ccccc3)NC(=O)[C@H](C)NC(=O)[C@H](C)NC(=O)[C@H](CCC(=O)O)NC(=O)[C@H](CC(=O)O)NC1=O)NC(=O)[C@H](CC(C)(C)C)NC(=O)[C@H](CC(=O)O)NC2=O (stereo partly drawn) [I-1283, Ac-PL3-Asp-Npg-B5-Asp-Glu-Ala-Ala-Phe-iPrLys-PyrS2-2C1F-BztA-Leu-NH2] | 
10000 nM |  | 16 nM | 50 µM (≈ 96.8 µg/mL) | CC(=O)N1CCC[C@]12CC=CCCCC1(CCCC=CCCCOC(=O)N3CC[C@@](C(=O)N[C@@H](Cc4ccccc4C#N)C(=O)N[C@@H](Cc4csc5ccccc45)C(=O)N[C@@H](CCC(N)=O)C(N)=O)(C3)NC(=O)[C@H](CC(C)C)NC(=O)[C@H](Cc3ccccc3)NC(=O)[C@H](C)NC(=O)[C@H](C)NC(=O)[C@H](CC(=O)O)NC(=O)[C@H](CC(=O)O)NC1=O)NC(=O)[C@H](CC(C)(C)C)NC(=O)[C@H](CC(=O)O)NC2=O (stereo partly drawn) [I-1203, Ac-PL3-Asp-Npg-B5-Asp-Asp-Ala-Ala-Phe-Leu-PyrS2-2CNF-BztA-Gln-NH2] | 
9100 nM | 33 µM (≈ 64.8 µg/mL) | 11 nM |  | CC(=O)N1CCC[C@]12CC=CCCCC1(CCCC=CCCCOC(=O)N3CC[C@@](C(=O)N[C@@H](Cc4ccccc4F)C(=O)N[C@@H](Cc4csc5ccccc45)C(=O)N[C@@H](CCC(N)=O)C(N)=O)(C3)NC(=O)[C@H](Cc3ccccc3)NC(=O)[C@H](Cc3ccccc3)NC(=O)[C@H](C)NC(=O)[C@H](C)NC(=O)[C@H](CC(=O)O)NC(=O)[C@H](CC(=O)O)NC1=O)NC(=O)[C@H](CC(C)(C)C)NC(=O)[C@H](CC(=O)O)NC2=O (stereo partly drawn) [I-1322, Ac-PL3-Asp-Npg-B5-Asp-Asp-Ala-Ala-Phe-Phe-PyrS2-2FF-BztA-Gln-NH2] | 
21100 nM | 23 µM (≈ 45.7 µg/mL) | 10 nM |  | CC(=O)N1CCC[C@]12CC=CCCCC1(CCCC=CCCCOC(=O)N3CC[C@@](C(=O)N[C@@H](Cc4ccccc4Cl)C(=O)N[C@@H](Cc4csc5ccccc45)C(=O)N[C@@H](CCC(N)=O)C(N)=O)(C3)NC(=O)[C@H](CO)NC(=O)[C@H](Cc3ccccc3)NC(=O)[C@H](C)NC(=O)[C@H](CC(C)C)NC(=O)[C@H](CC(=O)O)NC(=O)[C@H](CC(=O)O)NC1=O)NC(=O)[C@H](CC1CCCCC1)NC(=O)[C@H](CC(=O)O)NC2=O (stereo partly drawn) [I-1147, Ac-PL3-Asp-Cha-B5-Asp-Asp-Leu-Ala-Phe-Ser-PyrS2-2C1F-BztA-Gln-NH2] | 
